Where a name gives a salt, the structure may show the parent alone. Read-outs that look alike come from different tables or passages of the source.
Assays:
[1] = molecular target: ErbB2 WT (Homo sapiens (Human), UniProt P04626); assay: ErbB enzyme assay (CisBio HTRF KinEASE-TK), Assay 2; type: biochemical
Summary of the method: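 ErbB2 phosphorylates 250 nM biotin-TK substrate at 1 mM ATP in 25 mM HEPES pH 7.4, 10 mM MgCl2, 0.01% Triton X-100 and 2% DMSO, for 30 min at 22 °C. Product is detected by HTRF with Sa-XL665 and TK-Ab-Cryptate. Percent of control is set by DMSO-only wells and pre-quenched wells.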

[2] = molecular target: ErbB2 insYVMA (HER2-YVMA, SEQ ID NO: 2) (Homo sapiens, UniProt P04626, INS775YVMA/P1170A); assay: biochemical; settings: ErbB2 insYVMA enzyme assay
[3] = molecular target: EGFR (Homo sapiens (Human), UniProt P00533); assay: ErbB enzyme assay (CisBio HTRF KinEASE-TK), Assay 3; type: biochemical
Summary of the method: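 Kinase incubated 30 min at 22 °C with 250 nM biotinylated TK substrate, 1 mM ATP and serially diluted compound in 25 mM HEPES pH 7.4, 10 mM MgCl2, 0.01% Triton X-100, 2% DMSO. Phosphorylation read by HTRF (Sa-XL665/TK-Ab-Cryptate); IC50 from 4-parameter fit of percent of control.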

[4] = molecular target: ErbB2 with Exon 20 YVMA insertion (HER2-YVMA) (Homo sapiens (Human), UniProt P04626, INS775YVMA); assay: Cellular phosphorylation assay, constitutive ErbB2 phosphorylation (Y1196) in engineered NIH 3T3 cells, Assay 4; type: cell-based
Summary of the method: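 Engineered NIH 3T3 cells expressing HER2-YVMA treated with compounds 1 h at 37 °C, then formaldehyde-fixed and methanol-permeabilized. pErbB2 Y1196 detected by in-cell infrared immunofluorescence, normalized to GAPDH. IC50 from the normalized curves.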

[5] = molecular target: EGFR wild type (EGFR WT) (Homo sapiens (Human), UniProt P00533); assay: Cellular phosphorylation assay, EGF-stimulated EGFR phosphorylation in engineered NIH 3T3 cells, Phospho-EGFR DuoSet IC ELISA, Assay 5; type: cell-based
Summary of the method: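 NIH 3T3 cells expressing EGFR WT (20,000/well, attached overnight) were exposed to serially diluted compound for 1 h at 37 °C, then stimulated with 100 ng/ml rEGF for 10 min. Phospho-EGFR in lysates measured by sandwich ELISA optical density; IC50 from curves.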

ErbB2 with Exon 20 YVMA insertion (HER2-YVMA), sequence (P04626 other isoform, or with tags, fused parts or gaps ins YVMA behind 775): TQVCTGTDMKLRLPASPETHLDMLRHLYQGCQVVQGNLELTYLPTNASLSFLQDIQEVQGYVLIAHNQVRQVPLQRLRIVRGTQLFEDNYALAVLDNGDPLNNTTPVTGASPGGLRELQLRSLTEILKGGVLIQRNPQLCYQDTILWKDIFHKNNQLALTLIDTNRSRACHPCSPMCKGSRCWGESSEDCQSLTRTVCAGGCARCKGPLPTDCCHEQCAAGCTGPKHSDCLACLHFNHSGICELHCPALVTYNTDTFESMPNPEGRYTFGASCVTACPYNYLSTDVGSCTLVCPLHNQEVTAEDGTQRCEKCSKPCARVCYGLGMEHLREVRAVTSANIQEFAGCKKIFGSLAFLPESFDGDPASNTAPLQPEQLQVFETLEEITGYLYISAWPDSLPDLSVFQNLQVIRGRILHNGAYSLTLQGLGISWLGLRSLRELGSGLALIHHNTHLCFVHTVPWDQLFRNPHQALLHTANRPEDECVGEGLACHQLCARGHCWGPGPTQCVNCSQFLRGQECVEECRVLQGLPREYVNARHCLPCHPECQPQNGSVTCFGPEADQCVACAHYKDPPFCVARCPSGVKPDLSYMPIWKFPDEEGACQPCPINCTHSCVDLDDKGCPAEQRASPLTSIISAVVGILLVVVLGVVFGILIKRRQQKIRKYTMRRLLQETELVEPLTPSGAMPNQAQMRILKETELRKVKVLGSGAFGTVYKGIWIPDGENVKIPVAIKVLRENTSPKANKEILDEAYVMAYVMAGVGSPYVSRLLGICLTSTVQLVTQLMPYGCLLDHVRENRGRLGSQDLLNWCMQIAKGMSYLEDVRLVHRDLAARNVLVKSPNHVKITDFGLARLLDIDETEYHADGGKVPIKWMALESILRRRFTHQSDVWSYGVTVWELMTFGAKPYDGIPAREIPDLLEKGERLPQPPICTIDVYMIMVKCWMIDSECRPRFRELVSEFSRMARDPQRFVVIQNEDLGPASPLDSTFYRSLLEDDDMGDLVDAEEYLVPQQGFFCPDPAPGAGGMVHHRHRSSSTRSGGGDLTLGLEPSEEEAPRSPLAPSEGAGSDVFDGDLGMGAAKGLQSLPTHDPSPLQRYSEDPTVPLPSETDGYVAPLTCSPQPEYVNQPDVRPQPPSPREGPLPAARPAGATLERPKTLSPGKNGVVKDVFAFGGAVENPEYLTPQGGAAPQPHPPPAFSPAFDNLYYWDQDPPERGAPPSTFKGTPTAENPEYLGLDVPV
ErbB2 WT, sequence (P04626 23-1255): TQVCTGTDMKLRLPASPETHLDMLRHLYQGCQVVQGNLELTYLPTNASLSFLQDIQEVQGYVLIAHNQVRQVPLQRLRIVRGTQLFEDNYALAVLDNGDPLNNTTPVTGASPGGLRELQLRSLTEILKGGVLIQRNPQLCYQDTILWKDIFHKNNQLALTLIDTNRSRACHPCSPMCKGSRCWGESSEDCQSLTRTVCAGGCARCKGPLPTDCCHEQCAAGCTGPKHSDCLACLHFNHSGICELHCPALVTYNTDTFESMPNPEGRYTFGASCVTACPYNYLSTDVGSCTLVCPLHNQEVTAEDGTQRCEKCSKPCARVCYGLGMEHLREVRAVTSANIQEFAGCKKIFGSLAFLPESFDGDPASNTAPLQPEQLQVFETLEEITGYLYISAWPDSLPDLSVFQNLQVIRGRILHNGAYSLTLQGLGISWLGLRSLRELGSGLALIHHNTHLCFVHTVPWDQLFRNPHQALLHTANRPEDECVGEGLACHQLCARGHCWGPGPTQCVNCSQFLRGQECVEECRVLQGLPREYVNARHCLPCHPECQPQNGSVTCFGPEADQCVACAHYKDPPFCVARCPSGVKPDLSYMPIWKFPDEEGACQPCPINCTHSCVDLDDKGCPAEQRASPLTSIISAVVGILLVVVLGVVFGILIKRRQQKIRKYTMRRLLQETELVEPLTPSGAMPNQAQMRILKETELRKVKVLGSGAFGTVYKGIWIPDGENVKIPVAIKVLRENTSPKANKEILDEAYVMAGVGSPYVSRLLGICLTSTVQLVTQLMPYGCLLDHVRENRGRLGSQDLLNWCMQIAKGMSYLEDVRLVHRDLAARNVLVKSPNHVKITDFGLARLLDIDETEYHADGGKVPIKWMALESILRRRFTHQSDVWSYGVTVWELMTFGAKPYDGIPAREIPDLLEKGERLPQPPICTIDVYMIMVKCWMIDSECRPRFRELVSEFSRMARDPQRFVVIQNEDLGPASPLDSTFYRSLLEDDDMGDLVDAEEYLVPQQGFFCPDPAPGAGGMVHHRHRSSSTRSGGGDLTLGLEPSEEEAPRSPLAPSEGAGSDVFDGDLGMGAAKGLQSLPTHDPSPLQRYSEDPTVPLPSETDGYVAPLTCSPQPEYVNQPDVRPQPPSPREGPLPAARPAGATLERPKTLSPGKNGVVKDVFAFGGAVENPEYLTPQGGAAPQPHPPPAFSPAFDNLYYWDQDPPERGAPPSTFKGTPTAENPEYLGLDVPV
EGFR, sequence (P00533 25-1210): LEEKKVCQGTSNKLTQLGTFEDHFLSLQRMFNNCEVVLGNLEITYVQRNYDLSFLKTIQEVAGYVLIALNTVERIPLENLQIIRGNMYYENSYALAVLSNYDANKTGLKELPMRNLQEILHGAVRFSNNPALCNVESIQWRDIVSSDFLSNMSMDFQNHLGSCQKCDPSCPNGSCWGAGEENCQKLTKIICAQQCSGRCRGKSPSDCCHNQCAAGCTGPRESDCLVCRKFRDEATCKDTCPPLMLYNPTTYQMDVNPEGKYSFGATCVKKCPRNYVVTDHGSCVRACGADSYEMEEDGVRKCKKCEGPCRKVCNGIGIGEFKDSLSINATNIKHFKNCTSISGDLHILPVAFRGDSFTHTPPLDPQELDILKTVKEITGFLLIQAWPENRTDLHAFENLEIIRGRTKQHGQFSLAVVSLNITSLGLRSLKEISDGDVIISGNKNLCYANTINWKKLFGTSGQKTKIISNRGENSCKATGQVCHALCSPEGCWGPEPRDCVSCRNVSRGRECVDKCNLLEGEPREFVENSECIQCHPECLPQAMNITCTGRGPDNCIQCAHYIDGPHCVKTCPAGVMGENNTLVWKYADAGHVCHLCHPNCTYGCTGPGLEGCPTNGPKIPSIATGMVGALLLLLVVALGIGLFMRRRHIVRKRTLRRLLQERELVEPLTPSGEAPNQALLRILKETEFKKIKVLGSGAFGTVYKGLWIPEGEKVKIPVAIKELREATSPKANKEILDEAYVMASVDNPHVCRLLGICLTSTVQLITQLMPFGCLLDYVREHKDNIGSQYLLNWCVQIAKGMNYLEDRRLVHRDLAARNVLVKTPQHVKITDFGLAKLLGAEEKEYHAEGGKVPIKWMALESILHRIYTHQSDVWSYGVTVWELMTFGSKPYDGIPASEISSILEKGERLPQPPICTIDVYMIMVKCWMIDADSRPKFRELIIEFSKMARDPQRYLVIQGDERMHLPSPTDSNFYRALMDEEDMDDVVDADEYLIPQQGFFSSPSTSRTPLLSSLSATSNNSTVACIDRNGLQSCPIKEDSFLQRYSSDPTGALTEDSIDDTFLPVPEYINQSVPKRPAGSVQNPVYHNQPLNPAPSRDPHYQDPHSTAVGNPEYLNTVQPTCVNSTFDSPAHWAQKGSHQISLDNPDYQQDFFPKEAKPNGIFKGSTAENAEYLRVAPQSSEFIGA
EGFR wild type (EGFR WT), sequence (P00533 25-1210): as above

| SMILES | IC50 [1] [nM] | IC50 ([2]; read-out: Assay 1 IC50) [nM] | IC50 [3] [µM] | IC50 [4] [nM] | IC50 [5] [µM] | IC50 ([2]; Assay 1 IC50 (nM)) [nM] |
| --- | --- | --- | --- | --- | --- | --- |
| Cc1cc(Nc2ncnc3cnc(N4CCCC4=O)nc23)ccc1Oc1ccn2ncnc2c1 [Example 137, 1-(8-((4-([1,2,4]triazolo[1,5-a]pyridin-7-yloxy)-3-methylphenyl)amino)pyrimido[5,4-d]pyrimidin-2-yl)pyrrolidin-2-one] | 166 | 97.7 | ≥ 10 | 1080 | ≥ 5 | – |
| Cc1cc(Nc2ncnc3cnc(N=S4(=O)CCOCC4)nc23)ccc1Oc1ccc2c(c1)ncn2C [Example 138, 4-((8-((3-methyl-4-((1-methyl-1H-benzo[d]imidazol-5-yl)oxy)phenyl)amino)pyrimido[5,4-d]pyrimidin-2-yl)imino)-1,4λ^6-oxathiane 4-oxide] | 33.6 | 32.2 | 4.91 | 58.2 | ≥ 5 | – |
| Cc1cc(Nc2ncnc3cnc(N4CCCS4(=O)=O)nc23)ccc1Oc1ccc2c(c1)ncn2C [Example 139, 2-(8-((3-methyl-4-((1-methyl-1H-benzo[d]imidazol-5-yl)oxy)phenyl)amino)pyrimido[5,4-d]pyrimidin-2-yl)isothiazolidine 1,1-dioxide] | 12.6 | 9.6 | 1.57 | 6.3 | ≥ 5 | – |
| Cc1cc(Nc2ncnc3cnc(N4CC(C)CS4(=O)=O)nc23)ccc1Oc1ccc2c(c1)ncn2C (stereo not shown) [Example 140, 4-methyl-2-(8-((3-methyl-4-((1-methyl-1H-benzo[d]imidazol-5-yl)oxy)phenyl)amino)pyrimido[5,4-d]pyrimidin-2-yl)isothiazolidine 1,1-dioxide] | 20.3 | 21.3 | 6.36 | 8.1 | ≥ 5 | – |
| CON1CCN(c2ncc3ncnc(Nc4ccc(Oc5ccc6c(c5)ncn6C)c(C)c4F)c3n2)CC1 [Example 142, N-(2-fluoro-3-methyl-4-((1-methyl-1H-benzo[d]imidazol-5-yl)oxy)phenyl)-6-(4-methoxypiperazin-1-yl)pyrimido[5,4-d]pyrimidin-4-amine 2,2,2-trifluoroacetate] | 50.7 | – | ≥ 10 | 72.7 | ≥ 5 | 24.2 |
| CN1CCN(c2ncc3ncnc(Nc4ccc(Oc5ccc6c(c5)ncn6C)c(Cl)c4)c3n2)CC1 [Example 143, N-(3-chloro-4-((1-methyl-1H-benzo[d]imidazol-5-yl)oxy)phenyl)-6-(4-methylpiperazin-1-yl)pyrimido[5,4-d]pyrimidin-4-amine 2,2,2-trifluoroacetate] | 50.7 | – | 7.41 | 28.2 | ≥ 5 | 35.1 |
| C[C@@H]1COCCN1c1ncc2ncnc(Nc3ccc(Oc4ccc5c(c4)ncn5C)c(Cl)c3)c2n1 [Example 144, (R)—N-(3-chloro-4-((1-methyl-1H-benzo[d]imidazol-5-yl)oxy)phenyl)-6-(3-methylmorpholino)pyrimido[5,4-d]pyrimidin-4-amine] | 78.2 | 59.5 | 6.91 | 38.1 | ≥ 5 | – |
| Cn1cnc2cc(Oc3ccc(Nc4ncnc5cnc(N6CC[C@H](C#N)C6)nc45)cc3Cl)ccc21 [Example 152, (S)-1-(8-((3-chloro-4-((1-methyl-1H-benzo[d]imidazol-5-yl)oxy)phenyl)amino)pyrimido[5,4-d]pyrimidin-2-yl)pyrrolidine-3-carbonitrile 2,2,2-trifluoroacetate] | 78.7 | – | ≥ 10 | 31.9 | ≥ 5 | 36.7 |
| Cc1cc(Nc2ncnc3cnc(N4CCCO4)nc23)ccc1Oc1cc(F)c2c(c1)ncn2C [Example 155, N-(4-((7-fluoro-1-methyl-1H-benzo[d]imidazol-5-yl)oxy)-3-methylphenyl)-6-(isoxazolidin-2-yl)pyrimido[5,4-d]pyrimidin-4-amine] | 52.9 | 22.5 | 4.28 | 5.5 | ≥ 5 | – |
| Cc1cc(Nc2ncnc3cnc(N4CC(O)(C(F)F)C4)nc23)ccc1Oc1ccc2c(c1)ncn2C [Example 160, 3-(difluoromethyl)-1-(8-((3-methyl-4-((1-methyl-1H-benzo[d]imidazol-5-yl)oxy)phenyl)amino)pyrimido[5,4-d]pyrimidin-2-yl)azetidin-3-ol hydrochloride] | 67.2 | – | 6.76 | 42.8 | ≥ 5 | 20.3 |
| Cc1cc(Nc2ncnc3cnc(N(C)CC(O)C(F)(F)F)nc23)ccc1Oc1ccc2c(c1)ncn2C (stereo not shown) [Example 188, 1,1,1-trifluoro-3-(methyl(8-((3-methyl-4-((1-methyl-1H-benzo[d]imidazol-5-yl)oxy)phenyl)amino)pyrimido[5,4-d]pyrimidin-2-yl)amino)propan-2-ol] | 27.1 | 27.5 | ≥ 10 | 20.5 | ≥ 5 | – |
| Cc1cc(Nc2ncnc3cnc(N4CC[C@@H](CC#N)C4)nc23)ccc1Oc1ccc2c(c1)ncn2C [Example 201, (S)-2-(1-(8-((3-methyl-4-((1-methyl-1H-benzo[d]imidazol-5-yl)oxy)phenyl)amino)pyrimido[5,4-d]pyrimidin-2-yl)pyrrolidin-3-yl)acetonitrile] | 88.8 | 27.7 | ≥ 10 | 9.9 | ≥ 5 | – |
| Cc1cc(Nc2ncnc3cnc(N(C)CC(C)(C)C#N)nc23)ccc1Oc1ccc2c(c1)ncn2C [Example 205, 2,2-dimethyl-3-(methyl(8-((3-methyl-4-((1-methyl-1H-benzo[d]imidazol-5-yl)oxy)phenyl)amino)pyrimido[5,4-d]pyrimidin-2-yl)amino)propanenitrile] | 104 | 29.7 | ≥ 10 | 25.6 | ≥ 5 | – |
| Cc1cc(Nc2ncnc3cnc(N4CCC(C)(O)CC4)nc23)c(F)cc1Oc1ccc2c(c1)ncn2C [Example 215, 1-(8-((2-fluoro-5-methyl-4-((1-methyl-1H-benzo[d]imidazol-5-yl)oxy)phenyl)amino)pyrimido[5,4-d]pyrimidin-2-yl)-4-methylpiperidin-4-ol] | 120 | 28.8 | ≥ 10 | 37.8 | ≥ 5 | – |
| CON(C)CCNc1ncc2ncnc(Nc3ccc(Oc4ccc5c(c4)ncn5C)c(C)c3)c2n1 [Example 219, N2-(2-(methoxy(methyl)amino)ethyl)-N8-(3-methyl-4-((1-methyl-1H-benzo[d]imidazol-5-yl)oxy)phenyl)pyrimido[5,4-d]pyrimidine-2,8-diamine] | 27.6 | 14.8 | 2.11 | 6.2 | ≥ 5 | – |
| CON1CCC(Nc2ncc3ncnc(Nc4ccc(Oc5ccc6c(c5)ncn6C)c(C)c4)c3n2)C1 (stereo not shown) [Example 220, N2-(1-methoxpyrrolidin-3-yl)-N8-(3-methyl-4-((1-methyl-1H-benzo[d]imidazol-5-yl)oxy)phenyl)pyrimido[5,4-d]pyrimidine-2,8-diamine] | 12.1 | 9.3 | 1.52 | 8 | ≥ 5 | – |
| Cc1cnc(-c2ncc3ncnc(Nc4ccc(Oc5ccc6c(c5)ncn6C)c(C)c4)c3n2)o1 [Example 231] | 274 | 115 | ≥ 10 | 39.2 | ≥ 5 | – |
